Data from patent US8557603B2, “Synthetic peptides, methods and kits for diagnosing autoimmune diseases” (FlySun Development Co. Ltd., priority 2009, dated 2013).

Tested on: IgA autoantibodies of patients with acute HSP
Test: ELISA detection of IgA anti-β2-GPI-derived peptides antibodies
Type: binding, human
Conditions: for binding between IgA derived from 7 patients with acute HSP and the synthetic peptide: IgA1-7 at 10 (g/ml), n=7, OD higher than positive control (β2-GPI) regarded as significant, FIG. 8; for plasma level of IgA anti-β2-GPI peptide antibodies in children with acute HSP compared with healthy subjects: plasma 1:50, peptide coated at 10 (g/ml), expressed as OD, p<0.0001
Experimental: Circulating IgA immunoglobulins were isolated from 7 plasma samples positive for both CL and β2GPI by use of a commercial kit, Immobilized Jacalin (PIERCE, USA, USA), which isolates serum-circulating IgA1 by galactose-binding lectin.
Briefly, 96-well high binding plates (Costar, Cambridge, Mass., USA) are coated with human β-2-GPI peptides 1-15 at a concentration of 10 (g/ml in Tris-buffered saline (TBS, 0.05 M Tris-HCl and NaCl, PH 7.5). After incubating overnight at 4° C., plates are blocked with TBS containing 0.3% gelatin. Then, plasma samples (1:50 for IgA), and IgA fraction from patients (indicated concentrations) in TBS/0.1% gelatin were distributed into wells in duplicate and incubated for 1.5 hours at room temperature. A pooled normal human IgA (Jackson ImmunoResearch, West Grove, Pa., USA) will be used as negative controls at the same concentrations. After washing with TBS, bound human […] were detected with HRP-conjugated goat anti-human IgA (BioSource International, Camarillo, Calif., USA), and the peroxidase substrate tetramethylbenzidine (Kirkegaard & Perry Laboratories, Gaithersburg, Md., USA). Results were read at a wavelength of 450 nm against a background of 650 nm with a Thermomax plate reader (Molecular Devices Inc., Sunnyvale, Calif., USA).

| Substance | binding between IgA derived from 7 patients with acute HSP and the synthetic peptide | plasma level of IgA anti-β2-GPI peptide antibodies in children with acute HSP compared with healthy subjects (FIGS. 7, 8 and 9) | binding strength among the synthetic peptides (IgA anti-peptide antibodies, children with acute HSP, FIGS. 7, 8 and 9) |
| --- | --- | --- | --- |
| H2N-FKNGMLHGDKVSFFCKNKEK-COOH (H-FKNGMLHGDKVSFFCKNKEK-OH; listed as Homo sapiens) [P12, synthetic β2-GPI-derived peptide, residues 286-305] | significant binding | significantly higher | – |
| H2N-KATFGCHDGYSLDGPEEIECTKLGNWSAMPSCKASCKVPVKKATVVYQGERVKIQEK-COOH (H-KATFGCHDGYSLDGPEEIECTKLGNWSAMPSCKASCKVPVKKATVVYQGERVKIQEK-OH; cysteine pairing not given here; listed as Homo sapiens) [P11, synthetic β2-GPI-derived peptide, residues 229-285] | significant binding | significantly higher | – |
| H2N-RYTTFEYPNTISFSCNTGFYLNGADSAK-COOH (H-RYTTFEYPNTISFSCNTGFYLNGADSAK-OH; listed as Homo sapiens) [P5, synthetic β2-GPI-derived peptide, residues 96-123] | significant binding | significantly higher | – |
| H2N-KPGYVSRGGMRKFICPLTGLWPINTLK-COOH (H-KPGYVSRGGMRKFICPLTGLWPINTLK-OH; listed as Homo sapiens) [P3, synthetic β2-GPI-derived peptide, residues 52-78] | significant binding | significantly higher | most significant |
| H2N-KWSPELPVCAPIICPPPSIPTFATLRVYK-COOH (H-KWSPELPVCAPIICPPPSIPTFATLRVYK-OH; cysteine pairing not given here; listed as Homo sapiens) [P7, synthetic β2-GPI-derived peptide, residues 129-157] | significant binding | significantly higher | – |
